Among the test systems are A549 NSCLC; CAKI-1 renal; CCRF-CEM leukemia; HOP-62 NSCLC; MALME-3M melanoma; OVCAR-3 ovarian; OVCAR-5 ovarian; SK-MEL-28 melanoma; UO-31 renal; SK-OV-3 ovarian.
Common to all, as to experiment: NCI-60 cell line screen, 48 h

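All cell lines were grown in 96-well plates and treated with compound for 48 hours. Here, GI50 denotes the concentration required for 50% inhibition of growth. At the TGI there is no net growth.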

Consider `CC(C)=CC1C(C(=O)OCc2cc3c(cc2Cl)OCO3)C1(C)C` (centres undefined), for which the TGI in the test on A549 NSCLC was greater than 100 µM; in the test with CAKI-1 renal it was greater than 100 µM; in the test with CCRF-CEM leukemia, greater than 100 µM; in the test with HOP-62 NSCLC, greater than 100 µM; in the test on MALME-3M melanoma it was 49 µM; in the test on OVCAR-3 ovarian, greater than 100 µM. The TGI in the test on OVCAR-5 ovarian, in the test on SK-MEL-28 melanoma and with UO-31 renal was greater than 100 µM in each case.
For `CC(=O)c1c(-c2ccc(Cl)cc2)c(C#N)c(=S)n(C2OC(CO)C(O)C(O)C2O)c1C` (centres undefined), the TGI in the test with A549 NSCLC was greater than 100 µM; in the test on CCRF-CEM leukemia it was 63.7 µM; in the test on HOP-62 NSCLC, greater than 100 µM; with MALME-3M melanoma it was greater than 100 µM; with OVCAR-3 ovarian, greater than 100 µM; in the test on OVCAR-5 ovarian it was greater than 100 µM. Also, the TGI is 87.6 µM in the test on SK-MEL-28 melanoma, greater than 100 µM in the test on SK-OV-3 ovarian and 6.92 µM with UO-31 renal.
As to `O=C(/C=C\c1ccccc1)Oc1ccc(/C=C2\CCC/C(=C\c3ccc(OC(=O)/C=C\c4ccccc4)cc3)C2=O)cc1`, the TGI with A549 NSCLC, in the test on CAKI-1 renal, in the test with CCRF-CEM leukemia, with HOP-62 NSCLC, with OVCAR-3 ovarian and with OVCAR-5 ovarian was greater than 100 µM in each case. Also, the TGI with SK-MEL-28 melanoma and in the test on UO-31 renal was greater than 100 µM in each case.
For `NC1CCC2(O)c3ccccc3C2C1` (centres undefined), the TGI in the test with A549 NSCLC, in the test on CCRF-CEM leukemia, with HOP-62 NSCLC, in the test with MALME-3M melanoma, with SK-MEL-28 melanoma and with SK-OV-3 ovarian was greater than 100 µM in each case. In the test with UO-31 renal, this molecule gave a TGI greater than 100 µM.
As for `Clc1[nH]nc2ccccc12`, the TGI with A549 NSCLC, with CCRF-CEM leukemia, with HOP-62 NSCLC, with MALME-3M melanoma, in the test on OVCAR-3 ovarian and in the test with OVCAR-5 ovarian was greater than 100 µM each time. Besides, the TGI in the test on SK-MEL-28 melanoma, in the test on SK-OV-3 ovarian and in the test on UO-31 renal was greater than 100 µM in each case.
Take `CCOC(=O)N1CCNCCN(C(=O)OCC)CCNCC1`: the TGI with A549 NSCLC, with CAKI-1 renal, in the test with CCRF-CEM leukemia, in the test with HOP-62 NSCLC, in the test on OVCAR-3 ovarian and with OVCAR-5 ovarian was greater than 100 µM each time. Further, the TGI in the test on SK-MEL-28 melanoma and in the test on UO-31 renal was greater than 100 µM throughout.
For `O=C(O)C1CCC(=O)N1C(=O)COc1cc(Cl)c(Cl)cc1Cl` (centres undefined), the TGI in the test with A549 NSCLC, in the test with CAKI-1 renal, in the test on OVCAR-3 ovarian, in the test on OVCAR-5 ovarian, with SK-MEL-28 melanoma and in the test on SK-OV-3 ovarian was greater than 100 µM in each case. The TGI in the test with UO-31 renal is greater than 100 µM.
Consider `O=c1c2[nH]cnc2n(-c2ccccc2)c(=S)n1-c1ccccc1`, for which the TGI in the test with A549 NSCLC, with CAKI-1 renal, in the test on CCRF-CEM leukemia, with HOP-62 NSCLC, with OVCAR-3 ovarian and in the test with OVCAR-5 ovarian was greater than 100 µM in each case. Moreover, the TGI in the test with SK-MEL-28 melanoma, in the test on SK-OV-3 ovarian and with UO-31 renal was greater than 100 µM each time.
Regarding `O=[N+]([O-])/C=C/c1cc(Cl)c(/C=C/[N+](=O)[O-])cc1Cl`, the TGI was 36.1 µM with A549 NSCLC; greater than 100 µM in the test with CCRF-CEM leukemia; 31.8 µM in the test with HOP-62 NSCLC; 5.04 µM with OVCAR-3 ovarian; greater than 56.6 µM in the test on SK-OV-3 ovarian.
Turning to `CC(C)(C)C(=O)c1c(O)c2ccccc2c2ccccc2c1=O`, the TGI in the test on A549 NSCLC, with CAKI-1 renal, with CCRF-CEM leukemia, in the test with HOP-62 NSCLC, with OVCAR-3 ovarian and with OVCAR-5 ovarian was greater than 100 µM each time. The TGI in the test with SK-MEL-28 melanoma, in the test on SK-OV-3 ovarian and in the test with UO-31 renal was greater than 100 µM each time.
Consider `Cc1ccc(S(=O)(=O)NC(=O)Nc2ccc(C(=O)O)cc2)cc1`, for which the TGI with A549 NSCLC, in the test on CCRF-CEM leukemia, with HOP-62 NSCLC, with MALME-3M melanoma, with OVCAR-5 ovarian and in the test on SK-MEL-28 melanoma was greater than 100 µM each time. Moreover, the TGI with SK-OV-3 ovarian and in the test with UO-31 renal was greater than 100 µM each time.
On to `COc1cc(C2c3cc4c(cc3[C@@H](Nc3ccc(F)cc3)C3COC[C@H]23)OCO4)cc(OC)c1O` (some centres undefined), for which the TGI was 10.6 µM in the test with A549 NSCLC; 8.45 µM in the test with CCRF-CEM leukemia; greater than 25 µM with HOP-62 NSCLC; 14.1 µM with OVCAR-5 ovarian; greater than 25 µM in the test on SK-MEL-28 melanoma; greater than 25 µM with SK-OV-3 ovarian. The molecule further yielded a TGI in the test on UO-31 renal of 4.57 µM.
For the molecule `NC(=O)CSc1nc2ccccc2c(=O)n1N`, the TGI in the test on A549 NSCLC, in the test on CAKI-1 renal, in the test on MALME-3M melanoma, in the test with OVCAR-3 ovarian, with OVCAR-5 ovarian and in the test on SK-MEL-28 melanoma was greater than 100 µM each time. Also, the TGI in the test with UO-31 renal was greater than 100 µM.
As to `CCc1c(O)nc(Nc2nc3ccccc3[nH]2)[nH]c1=O`, the TGI in the test on A549 NSCLC, with CCRF-CEM leukemia, in the test on HOP-62 NSCLC, in the test with MALME-3M melanoma, in the test with OVCAR-3 ovarian and with OVCAR-5 ovarian was greater than 100 µM in each case. The TGI with SK-MEL-28 melanoma, in the test with SK-OV-3 ovarian and in the test on UO-31 renal was greater than 100 µM each time.
Regarding `COC(=O)Nc1cc(OCCCOC(C)=O)c2[nH]c(C(=O)OC)cc2c1C[C@H](O)CO`, the TGI in the test with A549 NSCLC, in the test with CAKI-1 renal, with CCRF-CEM leukemia, in the test on HOP-62 NSCLC, in the test on OVCAR-3 ovarian and in the test with OVCAR-5 ovarian was greater than 100 µM each time. Besides, the TGI in the test on SK-MEL-28 melanoma, in the test on SK-OV-3 ovarian and in the test on UO-31 renal was greater than 100 µM throughout.
Consider `COc1ccc2oc(=O)c(-c3cc4c(c(C)n3)c(=O)oc3ccc(OC)cc34)cc2c1`, for which the TGI in the test on A549 NSCLC, in the test with CAKI-1 renal, in the test on CCRF-CEM leukemia, with HOP-62 NSCLC, with OVCAR-3 ovarian and with SK-MEL-28 melanoma was greater than 100 µM in each case. The TGI with SK-OV-3 ovarian and in the test with UO-31 renal was greater than 100 µM each time.
For the molecule `CCCCCCCCCCCC1=C(O)C(=O)C(CC2=C(O)C(=O)C(CCCCCCCCCCC)=C(O)C2=O)=C(O)C1=O`, the TGI in the test on A549 NSCLC is greater than 100 µM; with CAKI-1 renal, greater than 100 µM; in the test on CCRF-CEM leukemia it was 64.4 µM; in the test on MALME-3M melanoma it was greater than 100 µM; in the test with OVCAR-5 ovarian it was greater than 100 µM; in the test on SK-MEL-28 melanoma, greater than 100 µM. Further, the TGI in the test with SK-OV-3 ovarian and with UO-31 renal was greater than 100 µM each time.
For the molecule `NCCCNc1nc2ccccc2c2c(=O)c3cc(Cl)ccc3sc12`, the GI50 in the test on CAKI-1 renal was 1.49 µM; with OVCAR-5 ovarian, 1.67 µM; in the test with SK-OV-3 ovarian, 1.58 µM; in the test on UO-31 renal, 1.28 µM. Moreover, the TGI with CAKI-1 renal came out at 2.86 µM; in the test on OVCAR-5 ovarian it was 3.14 µM; in the test with SK-OV-3 ovarian it was 3.48 µM; with UO-31 renal, 2.58 µM.
Turning to `Cc1cc(-c2ccc(N=Nc3ccc4c(S(=O)(=O)O)cc(S(=O)(=O)O)c(N)c4c3O)c(C)c2)ccc1N=Nc1ccc2c(S(=O)(=O)O)cc(S(=O)(=O)O)c(N)c2c1O`, the TGI in the test with A549 NSCLC, in the test on CCRF-CEM leukemia, in the test with HOP-62 NSCLC, in the test on MALME-3M melanoma, in the test on OVCAR-3 ovarian and in the test with OVCAR-5 ovarian was greater than 100 µM each time. The TGI in the test with SK-MEL-28 melanoma, with SK-OV-3 ovarian and in the test on UO-31 renal was greater than 100 µM in each case.
In the case of `Cc1ccc(S(=O)(=O)OCCN(CCOS(=O)(=O)c2ccc(C)cc2)c2ccc(C=O)cc2)cc1`, the TGI with A549 NSCLC is greater than 100 µM; with CAKI-1 renal, 48.8 µM; in the test with CCRF-CEM leukemia, greater than 100 µM; in the test with MALME-3M melanoma it was 97.3 µM; with OVCAR-3 ovarian it was 56 µM; with OVCAR-5 ovarian, 64.8 µM. The results for the TGI with SK-MEL-28 melanoma and in the test on UO-31 renal were 81.3 µM and 41.3 µM, respectively.
As to `Cc1ccc(S(=O)(=O)N/N=c2/sc3ccccc3n2C)cc1`, the TGI with A549 NSCLC, in the test with CAKI-1 renal, in the test with CCRF-CEM leukemia, with HOP-62 NSCLC, with MALME-3M melanoma and with OVCAR-5 ovarian was greater than 100 µM throughout. Moreover, the TGI with SK-MEL-28 melanoma, in the test with SK-OV-3 ovarian and in the test with UO-31 renal was greater than 100 µM throughout.
With `O=C(/C=C/c1ccccc1)c1cc(CN2CCOCC2)c(O)c(CN2CCOCC2)c1`, the TGI in the test on A549 NSCLC was found to be 33.2 µM; in the test on CAKI-1 renal, 4.36 µM; in the test on CCRF-CEM leukemia it was 16.7 µM; in the test with HOP-62 NSCLC, 39.3 µM; in the test with OVCAR-3 ovarian it was 29.4 µM; in the test with OVCAR-5 ovarian it was 36.2 µM. Moreover, the TGI with SK-MEL-28 melanoma is 29.4 µM; in the test with UO-31 renal, 31.3 µM.
`COC(=O)[C@H](C)NC(=O)[C@H](NS(=O)(=O)c1nc2ccccc2s1)c1ccccc1`: the TGI was 67.2 µM with CAKI-1 renal; greater than 100 µM with CCRF-CEM leukemia; 74.4 µM with HOP-62 NSCLC; 31.9 µM in the test on SK-MEL-28 melanoma; greater than 100 µM in the test with SK-OV-3 ovarian; 35.8 µM with UO-31 renal.

These data come from PubChem BioAssay (NCI).
